Source: ChEMBL document CHEMBL4229367, “Identification of multi-target inhibitors of leukotriene and prostaglandin E2 biosynthesis by structural tuning of the FLAP inhibitor BRP-7” (Eur J Med Chem, 2018)

Key:
[1] = target: T1, Polyunsaturated fatty acid 5-lipoxygenase (Homo sapiens) (UniProt P09917); assay: Inhibition of recombinant human 5-LO expressed in Escherichia coli BL21 at 10 uM incubated for 15 mins prior to prewarming for 30 secs followed by CaCl2+ and arachidonic acid addition and measured after 10 mins by RP-HPLC analysis
T1 sequence (whole entry): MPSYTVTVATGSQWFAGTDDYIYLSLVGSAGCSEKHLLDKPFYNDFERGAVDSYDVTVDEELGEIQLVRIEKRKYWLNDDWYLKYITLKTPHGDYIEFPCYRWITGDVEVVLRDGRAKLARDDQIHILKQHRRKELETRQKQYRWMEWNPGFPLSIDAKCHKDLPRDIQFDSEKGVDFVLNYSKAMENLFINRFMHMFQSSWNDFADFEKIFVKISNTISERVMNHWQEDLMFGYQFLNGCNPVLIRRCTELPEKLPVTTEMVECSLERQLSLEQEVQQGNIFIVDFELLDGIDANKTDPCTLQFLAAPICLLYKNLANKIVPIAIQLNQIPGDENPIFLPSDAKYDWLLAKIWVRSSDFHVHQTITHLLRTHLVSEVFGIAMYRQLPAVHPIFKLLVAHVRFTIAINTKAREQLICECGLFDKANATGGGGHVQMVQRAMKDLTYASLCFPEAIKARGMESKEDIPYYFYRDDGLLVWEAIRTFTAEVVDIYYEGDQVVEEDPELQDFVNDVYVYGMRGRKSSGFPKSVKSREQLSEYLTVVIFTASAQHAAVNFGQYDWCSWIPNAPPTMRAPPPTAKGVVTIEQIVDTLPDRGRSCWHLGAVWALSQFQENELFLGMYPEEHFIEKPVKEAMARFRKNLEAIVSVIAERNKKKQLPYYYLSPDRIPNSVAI

[2] = target: T2, Leukotriene C4 synthase (Homo sapiens, UniProt Q16873); assay: Inhibition of LTC4 synthase in LPS/fMLP-stimulated human monocytes assessed as decrease in cys-LT formation pre-incubated with LPS for 30 mins and later stimulated with fMLP for 10 mins by ELISA; assay type: cell-based
T2 sequence (Q16873 whole entry): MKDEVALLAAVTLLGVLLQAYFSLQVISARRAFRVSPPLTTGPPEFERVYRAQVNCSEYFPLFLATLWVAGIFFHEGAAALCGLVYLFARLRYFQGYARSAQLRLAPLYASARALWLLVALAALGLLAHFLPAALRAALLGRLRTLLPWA

[3] = target: T3, Arachidonate 5-lipoxygenase-activating protein (Homo sapiens) (UniProt P20292); assay: Inhibition of FLAP in A23187-stimulated human neutrophils assessed as remaining enzyme activity by measuring 5-LO product formation at 1 uM preincubated for 15 mins followed by A23187 and arachidonic acid addition and measured after 10 mins by UV based RP-HPLC analysis (reference value: 100%)
T3 sequence (whole entry): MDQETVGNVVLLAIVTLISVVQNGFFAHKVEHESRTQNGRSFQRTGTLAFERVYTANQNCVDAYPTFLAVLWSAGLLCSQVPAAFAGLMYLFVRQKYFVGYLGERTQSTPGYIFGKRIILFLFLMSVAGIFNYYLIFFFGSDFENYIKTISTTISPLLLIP

[4] = target: T4, Arachidonate 5-lipoxygenase-activating protein (Homo sapiens, UniProt P20292); assay: Inhibition of FLAP in A23187-stimulated human neutrophils assessed as reduction in 5-LO product formation preincubated for 15 mins followed by A23187 and arachidonic acid addition and measured after 10 mins by UV based RP-HPLC analysis
T4 sequence (P20292 whole entry): T3 sequence (whole entry)

[5] = target: T3, Arachidonate 5-lipoxygenase-activating protein (Homo sapiens); assay: Inhibition of FLAP in A23187-stimulated human neutrophils assessed as remaining enzyme activity by measuring 5-LO product formation at 0.1 uM preincubated for 15 mins followed by A23187 and arachidonic acid addition and measured after 10 mins by UV based RP-HPLC analysis (reference value: 100%)
[6] = target: T4, Arachidonate 5-lipoxygenase-activating protein; assay: Inhibition of FLAP in A23187-stimulated human monocytes assessed as reduction in 5-LO product formation preincubated for 15 mins followed by A23187 and arachidonic acid addition and measured after 10 mins by UV based RP-HPLC analysis; assay type: cell-based
[7] = target: T5, Polyunsaturated fatty acid 5-lipoxygenase (Homo sapiens, UniProt P09917); assay: Inhibition of 5-LO in A23187-stimulated human neutrophils assessed as reduction in 5-LO product formation preincubated for 15 mins followed by A23187 and 10 uM arachidonic acid addition and measured after 10 mins by UV based RP-HPLC analysis
T5 sequence (P09917 whole entry): T1 sequence (whole entry)

[8] = target: T6, Prostaglandin E synthase (Homo sapiens) (UniProt O14684); assay: Inhibition of mPGES1 in IL-1beta-stimulated human A549 cell microsomal fractions assessed as reduction in PGE2 production at 3 uM preincubated for 15 mins followed by PGH2 substrate addition and measured after 1 min by RP-HPLC analysis relative to control
T6 sequence (whole entry): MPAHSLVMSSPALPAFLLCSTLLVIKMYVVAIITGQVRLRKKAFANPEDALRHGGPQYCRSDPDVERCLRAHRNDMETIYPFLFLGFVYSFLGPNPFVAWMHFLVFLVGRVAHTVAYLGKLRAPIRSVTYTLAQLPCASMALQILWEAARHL

inhibition [1]: 26% | IC50 [2]: 30 nM | Activity [3]: 0% | IC50 [4]: 50 nM | Activity [5]: 32.1% | IC50 [6]: 70 nM | IC50 [7]: 60 nM | inhibition [8]: > 50%
Structure (SMILES): CC(C)Cc1ccc(C(C)c2nc3cc(CCC(=O)O)ccc3n2Cc2ccccc2Cl)cc1 (stereo not drawn)
